Molecules are shown by their SMILES.

The subject of this assay is Human prostate cancer cell lines (PC-3 cells). As to the kind of experiment: Measurement of cell death-inducing activity (Test Example 1). The format is cell-based. As to conditions: PC-3, 48 h, 48 hours after addition, tested at 10, 1, 0.1, 0.025 and 0.00625 μmol/L, qualitative evaluation of 10 fields, read-out: Concentration showing the cell death-inducing activity (cell death-inducing rate not less than 40%). The essentials: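 PC-3 cells seeded at 1×10^5 cells/well and grown 48 h at 37 °C, 5% CO2, then exposed to compound at 10, 1, 0.1, 0.025 and 0.00625 μmol/L (DMSO control) for a further 48 h. Activity was called where cell death-inducing rate was not less than 40%.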
As to `Cc1cc(/C=N/NC(=O)c2cnc(-c3ccccc3C)[nH]2)ccc1O` [Example 25-4, 2-(2-Methylphenyl)-3H-imidazole-4-carboxylic acid[1-(4-hydroxy-3-methylphenyl)methylidene]hydrazide], the minimal effective concentration turned out to be 10 µM.
In the case of `Cc1cc(F)ccc1-c1nc(C)c(NC(=O)OCc2ccc3c(c2)nnn3C)s1` [Example 9-19], the minimal effective concentration was 0.025 µM.
Then `CCc1nc(-c2ccc(F)cc2OC)sc1NC(=O)OCc1ccc2c(cnn2CC)c1` [Example 9-360], with 0.025 µM; and `O=C(Nc1ccc2c(c1)nc1n2CCCC1)OCc1cc(-c2ccc(Cl)cc2Cl)ns1` [Example 47-8], with 1 µM.
The result for `CCc1nc(-c2ccc(C)cc2C)sc1NC(=O)OCc1ccc2c(c1)ncn2CC` [Example 9-166] reads 0.025 µM.
Turning to `COc1cc(Cl)ccc1-c1cc(NC(=O)OCc2ccc3c(c2)ncn3C)sn1` [Example 45-2], the minimal effective concentration came out at 1 µM.
Regarding `COc1ccc(/C=N/NC(=O)c2sc(-c3ccc(F)cc3)nc2C)cc1` [Example 23-67], the minimal effective concentration was determined as 1 µM.
Take `COc1cc(C)ccc1-c1nc(C)c(NC(=O)OCc2ccc3ncsc3c2)s1` [Example 36-2]: the minimal effective concentration came out at 1 µM.
The result for `CCn1ncc2cc(/C=N/NC(=O)c3cc(-c4ccccc4OC)ns3)ccc21` [Example 49-7, 3-(2-Methoxyphenyl)isothiazole-5-carboxylic acid[1-(1-ethyl-1H-indazol-5-yl)methylidene]hydrazide] reads 1 µM; that for `COc1ccc(CN(C)NC(=O)c2sc(-c3ccc(F)cc3OC)nc2C)cc1` [Example 16-8], 0.1 µM; that for `COc1cc(Cl)ccc1-c1nc(C)c(COC(=O)Nc2ccc3c(c2)ncn3C)s1` [Example 13-5], 0.1 µM.
The result for `COc1ccc(-c2nc(C)c(C(=O)N/N=C/c3cc(C)c(O)c(C)c3)s2)cc1` [Example 23-104] reads 1 µM.
Then `CCn1nc(-c2ccc(C)cc2C)cc1NC(=O)OCc1ccc2c(cnn2C)c1` [Example 9-286], with 0.1 µM; and `Cc1nc2cc(NC(=O)OCc3sc(-c4ccc(Cl)cc4C)nc3C)ccc2s1` [Example 42-2, (2-Methylbenzothiazol-5-yl)carbamic acid 2-(4-chloro-2-methylphenyl)-4-methylthiazol-5-ylmethyl ester], with 1 µM; and `COc1ccccc1-c1nc(C)c(C(=O)N/N=C/c2ccc3c(c2)OCCN3C)s1` [Example 23-98], with 0.1 µM.
Regarding `CCn1nc(-c2ccc(Cl)cc2OC)cc1COC(=O)Nc1ccc2c(c1)nc1n2CCCC1` [Example 13-119], the minimal effective concentration was found to be 0.025 µM.
Consider `CCn1cnc2cc(COC(=O)Nc3sc(-c4ccc(C)cc4C)nc3C)ccc21` [Example 9-62], for which the minimal effective concentration was found to be 0.00625 µM.
The result for `COc1ccccc1-c1nscc1NC(=O)OCc1ccc2c(c1)ncn2C` [Example 45-6] reads 1 µM; that for `COc1ccc(-c2nc(C)c(C(=O)N/N=C/c3ccc(OC)c(O)c3)s2)cc1` [Example 23-103], 10 µM; that for `CCc1nc(-c2ccc(Cl)cc2OC)sc1NC(=O)OCc1ccc2c(c1)nc1n2CCOC1` [Example 9-169], 0.00625 µM.
The result for `CCc1nc(-c2ccc(F)cc2OC)sc1NC(=O)OCc1ccc2c(c1)nc1n2CCCC1` [Example 9-352] reads 0.1 µM; that for `CCc1nc(-c2ccc(Cl)cc2OC)sc1NC(=O)OCc1ccc2c(c1)nc1n2CCCC1` [Example 9-172], 0.025 µM.
Then `CCn1cnc2cc(COC(=O)Nc3sc(-c4ccccc4C)nc3C)ccc21` [Example 9-53], with 0.1 µM; and `COc1cc(Cl)ccc1-c1nn(C)c(NC(=O)OCc2ccc3c(c2)ncn3C)c1C` [Example 9-311], with 10 µM; and `CCOc1ccc(CN(C)NC(=O)c2sc(-c3ccc(Cl)cc3OC)nc2C)cc1` [Example 16-19], with 0.1 µM.
Take `COc1ccc(/C=N/NC(=O)c2sc(-c3ccc(Cl)cc3)nc2C(C)(C)C)cc1O` [Example 23-20]: the minimal effective concentration amounted to 10 µM.
The result for `Cc1nc(-c2ccc(Cl)cc2)sc1C(=O)N/N=C/c1ccccc1O` [Example 23-59] reads 10 µM; that for `COc1ccc(/C=N/NC(=O)c2sc(-c3ccccc3)nc2C)cc1O` [Example 23-53], 0.1 µM; that for `COc1cc(Cl)ccc1-c1nc(C)c(COC(=O)Nc2ccc3nn(C)cc3c2)s1` [Example 13-46], 10 µM.
Then `CCn1cnc2cc(NC(=O)OCc3sc(-c4ccco4)nc3C)ccc21` [Example 13-57], with 1 µM; and `CCc1nc(-c2ccc(Cl)cc2C)sc1NC(=O)OCc1ccc2c(c1)nc(C)n2C` [Example 9-376], with 0.1 µM; and `CCc1nc(-c2ccc(Cl)cc2C)sc1NC(=O)OCc1ccc2c(c1)ncn2C` [Example 9-359], with 0.025 µM.
The result for `CCc1nc2cc(COC(=O)Nc3sc(-c4ccc(Cl)cc4OC)nc3C)ccc2n1C` [Example 9-82] reads 0.025 µM.
For the compound `Cc1ccccc1-c1nc(C)c(COC(=O)Nc2ccc3c(c2)ncn3C)s1` [Example 13-1, (1-Methyl-1H-benzimidazol-5-yl)carbamic acid 4-methyl-2-(2-methylphenyl)thiazol-5-ylmethyl ester], the minimal effective concentration is 0.1 µM.
Then `CCn1nc(-c2ccccc2OC)cc1NC(=O)OCc1ccc2c(c1)ncn2C` [Example 9-214], with 0.1 µM; and `COc1ccc(/C=N/NC(=O)c2sc(-c3ccccc3OC)nc2C)c(O)c1` [Example 23-86], with 10 µM; and `COc1ccc2c(c1)CC/C2=N\NC(=O)c1sc(-c2ccc(Cl)cc2OC)nc1C` [Example 23-165], with 1 µM.
For `Cc1nc(-c2cccs2)sc1NC(=O)OCc1ccc2c(c1)ncn2C` [Example 9-191], the minimal effective concentration amounted to 10 µM.
Take `COc1ccc(-c2nc(C)c(NC(=O)OCc3ccc4c(c3)ncn4C)s2)c(OC)c1` [Example 9-41]: the minimal effective concentration was determined as 0.025 µM.
Then `Cc1nc(-c2ccc(F)cc2F)sc1NC(=O)OCc1ccc2c(c1)ncn2C` [Example 9-46], with 0.1 µM; and `Cc1cc(Cl)ccc1-c1nc(C)c(COC(=O)Nc2ccc3c(c2)nc2n3CCCC2)s1` [Example 13-35], with 0.025 µM.
As to `COc1cc(Cl)ccc1-c1nc(C)c(COC(=O)Nc2ccc3c(c2)nc2n3C(C)CCC2)s1` (stereo not drawn) [Example 13-36], the minimal effective concentration came out at 10 µM.
Then `COc1ccccc1-c1nc(C)c(NC(=O)OCc2ccc3c(cnn3C)c2)s1` [Example 9-126], with 0.1 µM; and `CCn1cnc2cc(COC(=O)Nc3c(C)c(-c4ccc(Cl)cc4OC)nn3C)ccc21` [Example 9-313], with 10 µM.
The result for `CCn1cnc2cc(COC(=O)Nc3cc(-c4ccc(Cl)cc4OC)ns3)ccc21` [Example 45-3] reads 10 µM; that for `Cn1nc(-c2ccc(Cl)cc2Cl)cc1NC(=O)OCc1ccc2c(cnn2C)c1` [Example 9-275], 1 µM; that for `CCn1cnc2cc(COC(=O)Nc3cc(-c4ccc(C)cc4C)nn3C)ccc21` [Example 9-235], 0.00625 µM.
Then `COc1cc(C)ccc1-c1nc(C)c(NC(=O)OCc2ccc3c(cnn3C)c2)s1` [Example 9-129], with 0.00625 µM; and `Cc1ccc(-c2nc(C)c(NC(=O)OCc3ccc4c(cnn4C)c3)s2)c(C)c1` [Example 9-130], with 0.025 µM.
In the case of `CCc1nc2cc(COC(=O)Nc3cc(-c4ccc(Cl)cc4Cl)nn3C)ccc2n1C` [Example 9-241], the minimal effective concentration was 10 µM.
The result for `COc1ccc(-c2nc(C)c(NC(=O)OCc3ccc4nn(C)cc4c3)s2)c(OC)c1` [Example 9-146] reads 0.1 µM; that for `CCc1nc(-c2ccc(C)cc2OC)sc1NC(=O)OCc1ccc2nn(C)cc2c1` [Example 9-365], 0.025 µM.
On to `Cc1ccc(-c2nc(C)c(NC(=O)OCc3ccc4nn(C)cc4c3)s2)c(C)c1` [Example 9-147], for which the minimal effective concentration worked out at 0.025 µM.
Take `COc1cc(C)ccc1-c1nc(C)c(NC(=O)OCc2ccc3nn(C)cc3c2)s1` [Example 9-145]: the minimal effective concentration worked out at 0.025 µM.
Then `Cc1ccc(C)c(-c2nc(C)c(C(=O)N/N=C/c3cc(C)c(O)c(C)c3)s2)c1` [Example 23-127], with 1 µM; and `CCn1nnc2cc(COC(=O)Nc3sc(-c4ccc(Cl)cc4OC)nc3C)ccc21` [Example 9-24], with 0.00625 µM; and `COc1cc(Cl)ccc1-c1cc(NC(=O)OCc2ccc3c(c2)ncn3C)nn1C` [Example 9-309], with 10 µM.
The result for `COc1cc(C)ccc1-c1cc(NC(=O)OCc2ccc3c(c2)nc2n3CCOC2)sn1` [Example 45-1] reads 10 µM; that for `COc1ccc(/C=N/NC(=O)c2sc(-c3ccccc3Cl)nc2C)c(Cl)c1O` [Example 23-4], 0.1 µM.
On to `COc1ccccc1-c1cc(NC(=O)OCc2ccc3c(c2)ncn3C)n(C)n1` [Example 9-213], for which the minimal effective concentration was 0.025 µM.
The result for `COc1ccccc1-c1nc(C)c(C(=O)N/N=C/c2ccc3[nH]ccc3c2)s1` [Example 23-90] reads 0.1 µM.
On to `CCn1cc2cc(COC(=O)Nc3sc(-c4ccc(C)cc4C)nc3C)ccc2n1` [Example 9-157], for which the minimal effective concentration worked out at 0.1 µM.
In the case of `CCn1nc(-c2ccc(Cl)cc2OC)cc1COC(=O)Nc1ccc2c(cnn2C)c1` [Example 13-128], the minimal effective concentration amounted to 1 µM.
